# From patent US11891628B2, “Method for biomimetic culture of urothelial cells and uses thereof” (China Medical University, priority 2018, dated 2024)
# Key:
# [1] = system: BBN-induced bladder tumor; assay: BBN-induced bladder tumor mouse model; assay type: in vivo, mice
# Experimental: FIG. 9. […] Tumor-bearing mice were treated according to the experimental scheme (A). Representative photographs of the gross tumors from mice with different treatments (B). Tumor weights of the different treatment groups (C) (mean±SD, at least 9 mice from 3 independent experiments). Representative H&E stained images of tumors of different treatment groups (D). Histograms of the pathological analysis for the proportions of hyperplastic and neoplastic changes in bladder H&E stained section of mice with different treatments (E). *p<0.05; **p<0.01 by Student's t test.
# For BBN-induced bladder tumor formation, a 0.05% concentration of BBN (TCI America, Portland, OR) was dissolved in drinking water, and BBN-containing water in a dark bottle was provided to 8-10 week old female C57BL/6 mice ad libitum for 10-20 weeks until hematuria score is over 2+ (Arkray Aution Sticks urine strip) as a sign of bladder tumor formation. […]
# To test the anti-tumor effects of intravesical xenogeneic cell therapy in combination with chemotherapeutic agents in delaying tumor progression, BBN-induced tumor mouse model, which simulates the human bladder tumorigenesis from hyperplasia, carcinoma in situ (CIS) to invasive carcinoma was used. […] The progression of BBN-induced bladder tumors in the treatment groups and control group was assessed by macroscopic and histopathological examination from harvested bladders. […]
# [2] = system: MBT-2-luc orthotopic graft bladder tumor; assay: Orthotopic MBT-2-luc graft bladder tumor mouse model
# Experimental: The tumor bearing mice were enrolled when tumor bioluminescent signal reached 10^5 total plex and treated according to the treatment scheme (A).
# Tumors from mice of different treatment groups were harvested, processed and sectioned for tumor cell Ki-67 IHC and TUNEL assay. Tumor sections were evaluated for cell proliferation 45 with Ki-67 IHC staining (A). Ki-67 positive cells on tumor sections were counted and quantified from mice of 3 independent experiments (B). Tumor sections were stained with TUNEL (FITC) and observed under a fluorescent microscope (C). DAPI was used for nuclear staining. TUNEL positive cells on tumor sections were counted and quantified from mice of 3 independent experiments (D). Values are expressed as mean±standard error of the mean (n=3). *p<0.05; **p<0.01; ***p<0.001, by Student's t test. Scale bar, 50 μm.
# Tumors from mice given different treatments were analyzed by IHC for lymphocyte and NK cell infiltration. Representative images of anti-CD4 (A), CD8 (B) and NKG2D (C) IHC staining on tumor sections. Quantification of CD4+ T lymphocytes (D), CD8+T lymphocytes (E) and NKG2D+ NK cells (F) in tumors for each treatment group by counting the positive cells in four randomly selected HPFs among 3 mice in each group, and data were expressed as the means±SD. Error bars represent SD. *p<0.05; **p<0.01; ***p<0.001, by Student's t test.
# Female C3H/HeJ 9-week-old mice were used to establish the intramural orthotopic model. MBT-2 murine urothelial carcinoma cells stably expressing luciferase gene (MBT-2-luc) were intramuscularly injected to mouse bladder walls and capture tumor imaged by Xenogen IVIS 200 once per week. The mice are divided control and experiment groups when tumors are reached around 1×10^5 p/s total flux in bioluminescence imaging. The tumor bearing mice were divided into 4 treatment groups: (i). Vehicle control, (ii). Xenogeneic urothelial cell: intravesical of instillation xenogeneic urothelial cells (1×10^6 cells), once a week, day 3 for 4 weeks, (iii). […] A 24-gauge catheter is introduced into the lumen of the bladder through the urethra. Xenogeneic urothelial cells, 1×10^6 in a 100 μl suspension is then injected into the bladder. To prevent voiding of the xenogeneic urothelial cells, the catheter is held in place for at least 40 minutes with the injection syringe attached. The catheter is removed before the mouse recovered from anesthesia. The responses of mice are analyzed on BLI total flux intensity changes from the baseline.
# [3] = IHC on tumor sections, vs vehicle
substance,measurement,setting,value
Gemcitabine plus cisplatin [GC],tumor weight,[1]; harvested bladders after 4 weeks treatment,significantly reduced
same,proportion of mice progressed to invasive carcinoma,[1]; histopathological analysis of H&E sections,significantly lower
same,NKG2D+ NK cell infiltration in tumors,[2]; [3],not observed
same,tumor CD4+ T cell infiltration,[2]; [3],increased
same,tumor CD8+ T cell infiltration,[2]; [3],increased
same,tumor growth,"[2]; bioluminescence, vs vehicle-treated groups, 4 weeks treatment",significantly decreased
